# Results: patent US8530456B2, “Sonic hedgehog modulators” (President and Fellows of Harvard College, priority 2008, dated 2013)
# Entries after “also recorded” stand apart in the source; their conditions may differ.
# Tests used:
# [1] = system: Ptc1-/- MEF cell line (Gli1-beta-galactosidase reporter); assay: Ptc1-/- cell line beta-galactosidase reporter assay; type: cell-based, mouse
# Method: To explore further the potential mechanism of Shh pathway inhibition involving direct perturbation of the ShhN protein complex, the same compounds were tested in a Ptc1^−/− cell line derived from mouse embryos lacking Ptc1 function. The cell line had both Ptc1 alleles replaced with a β-galoctosidase (β-gal) reporter (Surajit et al., supra). Because Ptc1 inhibits Hh pathway activation by repressing Smo function, removing both Ptc1 alleles results in constitutive pathway activation.
# The ptc−/− cell line was derived from an embryonic mouse fibroblast cell line transfected with a β-galactosidase construct. The cell line was cultured in DMEM with 10% FBS until confluent, and then cells were plated 1:5 into white 96-well optical-bottom plates and allowed to reach a confluent state over 3-4 days while incubating at 37° C. After reaching confluency, the medium was removed from each well, and the cells were treated with test compound (for example, robotnikinin or cyclopamine) (EMD Biosciences, San Diego, Calif.) in DMEM with 0.5% FBS. After a 30 hour incubation, the wells were treated with Beta-Glo assay reagent (Promega, Madison, Wis.) and allowed to be gently agitated for 30 minutes at room temperature. After the agitation was complete, plates were read with an Envision Multi-Label Reader 2102 luminometer.
# [2] = molecular target: ShhN (N-terminal fragment of Sonic Hedgehog protein) (Homo sapiens, UniProt Q15465); assay: Surface plasmon resonance (SPR) binding to immobilized purified ShhN; conditions: for ShhN binding in SPR: 0.78-25 μM compound
# Method: Biacore™ T100 (GE Healthcare, Uppsala, Sweden) was used to perform the experiments reported herein. Sensor surface preparation and interaction analyses experiments were performed at 25° C. Prior to surface preparation, lyophilized ShhN protein (R&D Systems) was dissolved in either water or PBS buffer, at pH 7.4 and protein purity determined by Nu-Page 4-12% Bis-Tris gel in MOPS buffer with a silver stain sensor preparation.
# ShhN was immobilized onto series S sensor chip CM4 via a standard N-ethyl-N′-(dimethylaminopropyl)carbodiimide/N-hydroxysuccinimide (EDC/NHS) amine coupling procedures (Biacore Sensor Surface Handbook, 2003, version AA, Biacore, Uppsala, Sweden). Shh was diluted to 10 μg/mL in 10 mM sodium acetate pH 5.5 for these procedures and resultant immobilization levels were 1000-1200 R.U.s. Control surfaces were prepared similarly without protein derivatization and utilized as a reference surfaces for compound binding experiments.
# For compound interaction analyses, 0.01 M Hepes, pH 7.4, 0.15 M NaCl, 0.05% Surfactant P20 and 5% DMSO was used for both running and sample buffers. Compound samples were prepared by serial dilution in the range 0.78 uM-25 uM and flowed over control and derivatized surfaces for two minutes at a flow-rate of 80 μL/min. Zero concentration blank buffer cycles were included as negative control samples. Solvent correction procedures were included to compensate for any DMSO related bulk refractive index variations and performed as described previously (Karlsson, R. et al. Anal. Biochem. 278, 1-13, 2000). Non-specific binding effects to sensor surface CM4 were absent for all analyses reported.
# Data analysis was carried out using Biacore T100 evaluation software v1.1.1. Data were prepared by subtraction of reference surface data and blank buffer sample data, a procedure commonly referred to as ‘double referencing’ (Myszka, D. G. J. Mol. Recognit. 12, 1-6, 1999). Solvent correction was then applied as described previously.
# [3] = molecular target: T1, ShhN protein (rmShh) (Mus musculus, UniProt Q62226); assay: Small molecule microarray (SMM) screen for ShhN binding; conditions: screened in triplicate
# T1 construct: Recombinant mouse amino-terminal peptide 461-CF (rmShh); purchased R & D Systems 461-CF
# Method: A screen of the ShhN protein was performed using small molecule microarrays (SMMs) containing a collection of approximately 10,000 diversity-oriented synthesis (DOS) compounds and natural products that has been reported by Koehler and co-workers, in which the entire library was arrayed on a single microscope slide (Bradner, J. E. et al. Chem. Biol. 13, 493-504, 2006). Three SMM slides were used to screen for small molecules that bind the ShhN protein, while two slides were designated as protein-free negative controls. Binding was detected by the use of a biotinylated anti-ShhN antibody, followed by incubation with streptavidin alexa 647. The treated slides were then scanned with a microarray plate reader. The duplicate negative controls eliminated many false positives, while screening in triplicate increased the accuracy of the results. Microarray image analysis was performed with GenePix Pro software (Molecular Devices, Sunnyvale Calif.). […] The software was then used to select all remaining possible positives in the ShhN-treated slides that exceeded our criteria for fluorescence intensity threshold. […]
# The three experimental SMM slides were incubated on parafilm (Alcon, Menasha Wis.) with 300 μL of a 25 μg/mL rmShh solution in a 0.1% BSA in PBS buffer. […] Slides were dried by centrifugation and scanned with a GenePix 4000B microarray plate reader (Axon Instruments, Sunnyvale Calif.). […]
# [4] = system: Gli1 (Gli-dependent firefly luciferase reporter, ShhL2 cell line); assay: ShhL2 (Shh-LIGHT2) Gli-luciferase reporter assay; type: cell-based
# Method: We examined the activity of the new series of AML compounds in Shh-LIGHT2 cells (ATCC, Manassas Va.) (Tapaile, J., et al., 2000 supra), which is an NIH3T3 cell line with a Gli-dependent firefly luciferase reporter.
# Therefore, compounds that repress Gli1 activity would be putative inhibitors of Shh signaling in the cell line in which the experiments were carried out. We examined the activity of the new series of AML compounds in the Shh Light II cell line, or ShhL2 line (ATCC, Manassas Va.) (Tapaile, J., et al., 2000 supra), which is an NIH3T3 line transformed with a Gli-luciferase construct along with zeocin and G418 resistance vectors to select for the transformed strains during normal culturing.
# (§1) ShhL2 cells are NIHT3 cells that have been transfected with a Gli-luciferase construct, as previously reported (Tapaile, et al. 2000; Surajit, et al., supra). ShhL2 cells (ATCC, Manassas, Va.) were cultured with DMEM (GIBCO, Carlsbad, Calif.), 10% Calf Bovine Serum (ATCC Manassas, Va.), 0.4 mg/ml G-418 (ATCC, Manassas, Va.), 0.15 mg/ml Zeocin (Invitrogen, Carlsbad Calif., Cat. No. R25001) at 37° C. When confluent, the cells were plated 1:5 into white 96-well optical-bottom plates and allowed to reach confluence over approximately 5-7 days. When confluent, the medium was removed and the ShhL2 cells were treated with test compound (for example, robotnikinin or cyclopamine) (EMD Biosciences, San Diego, Calif.) in DMEM with 0.5% Calf Bovine Serum. After incubation for 30 hours, each well was treated with 100 μL of Bright-Glo luciferase assay reagent (Promega, Madison, Wis.) and the plate was read with an Envision Multi-Label Reader 2102 luminometer (Perkin Elmer, Waltham, Mass.). Wells treated in identical fashion were then treated with Cell Titer-Glo reagent (Promega, Madison, Wis.) and read with an Envision Multi-Label Reader 2102 luminometer after being allowed to stand 10 minutes at room temperature.
# [5] = system: ShhL2 cells; assay: Cell Titer Glo cell viability assay run in parallel in ShhL2 cells; type: cell-based
# Method: as §1
# [6] = system: Gli1 mRNA; assay: Gli1 mRNA by qPCR in primary human keratinocytes; type: cell-based
# Description: (§2) Culturing of primary human keratinocytes was previously described (Nguyen, B. C., et al., Genes & Dev. 20:1028-1042 (2006)). The full thickness skin model, EpiDermFT System (MatTek, Ashland), consists of normal, human-derived epidermal keratinocytes and normal, human-derived dermal fibroblasts which have been cultured to form a multilayered, highly differentiated model of the human dermis and epidermis.
# (§3) Gene expression was compared by quantifying mRNA levels by real time RT-PCR. For this, total RNA preparations (1 μg) were used in a reverse transcriptase reaction with a mix of oligonucleotide dT and random hexamer primers, followed by real time PCR with gene-specific primers (Gli1: Qiagen Quantitect PrimerAssay QT00060501; Gli2: Qiagen Quantitect PrimerAssay QT00018648), using an Icycler IQTM real time detection system (Bio-Rad) according to the manufacturer's recommendation, with SYBR Green (Bio-Rad) for detection. Each sample was tested in triplicate, and the results were normalized by real time PCR of the same cDNA with 36B4 primers (36B4 forward primer: 5′-GCAATGTTGCCAGTGTCTGT 3; reverse primer, 5′-GCCTTGACCTTTTCAGCAAG-3′).
# [7] = system: Gli2 mRNA; assay: Gli2 mRNA by qPCR in primary human keratinocytes; type: cell-based
# Description: as §2, §3
# [8] = system: Gli1 and Gli2 transcripts; assay: Synthetic skin (primary human keratinocytes on collagen matrix): qPCR and histology; type: cell-based
# Description: as §2, §3
# [9] = system: hair regrowth; assay: Topical application after depilation, hair regrowth in mice; type: in vivo, mouse
# Method: Eight-week-old C57BL/6J female mice were purchased from Charles River (Boston, Mass.). Mice were housed in community cages at the animal facilities of the Massachusetts General Hospital. All mice were fed water and murine chow ad libitum and kept under 12 h light/dark cycles. Active hair growth (anagen) was induced in the back skin during the telogen phase of the hair cycle by application of the wax-rosin mixture with subsequent depilation, as described before (Paus, R., Stenn, K. S., Link, R. E. (1990). Br. J. Dermatol. 122, 777-784).
# Robotnokinin was dissolved in 10% DMSO and applied every day topically on the depilated skin surface. Mice were kept in individual cages to avoid scratching. Telogen-anagen transformation was studied at the following time points: telogen (unmanipulated skin), anagen (day 8 postdepilation) and very late anagen (day 12 postdepilation) (see FIG. 8a, top panels). In all experiments, the neck region of back skin was harvested parallel to the vertebral line for either heat-mediated epidermal separation and subsequent real time RT-PCR analysis for Gli1 and Gli2 expression levels or embedded for histology on frozen sections (see FIG. 8a, bottom panel, and FIG. 8b).
# Sequence of ShhN (N-terminal fragment of Sonic Hedgehog protein) (Q15465 24-197): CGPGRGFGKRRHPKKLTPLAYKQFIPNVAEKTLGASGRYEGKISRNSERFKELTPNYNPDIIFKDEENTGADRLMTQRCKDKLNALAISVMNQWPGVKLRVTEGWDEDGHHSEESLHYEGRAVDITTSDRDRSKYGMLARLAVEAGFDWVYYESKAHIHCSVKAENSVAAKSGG
# T1 sequence (Q62226 25-198 limits assumed): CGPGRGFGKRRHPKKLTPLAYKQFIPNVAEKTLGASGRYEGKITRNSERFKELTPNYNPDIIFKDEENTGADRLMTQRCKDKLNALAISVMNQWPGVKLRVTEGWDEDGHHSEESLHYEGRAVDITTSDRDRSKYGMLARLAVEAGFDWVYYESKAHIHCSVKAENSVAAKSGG
smiles,measurement,setting,value
"CC1=C2C[C@H]3[C@@H](CC=C4C[C@@H](O)CC[C@@]43C)[C@@H]2CC[C@]12O[C@@H]1C[C@H](C)CN[C@H]1[C@H]2C [cyclopamine, reference compound]",pathway inhibition in Ptc1-/- cell line,[1]; 6.6 μM cyclopamine,significant pathway inhibition
CC1CNC(=O)C(CC(=O)N(CCO)Cc2ccccc2)CC=CCCC(N)C(=O)O1 (centres unmarked) [AML1],ShhN binding in SPR,[2],binding to ShhN in a concentration-dependant fashion
same,SMM screen result,[3],assay positives
CC1COC(=O)C(N)CCC=CCC(CC(=O)N(CCO)Cc2ccccc2)C(=O)N1 (centres unmarked) [AML2],ShhN binding in SPR,[2],binding to ShhN in a concentration-dependant fashion
same,SMM screen result,[3],assay positives
"O=C(C[C@@H]1C/C=C/CCC(=O)O[C@H](c2ccccc2)CNC1=O)NCc1ccc(Cl)cc1 [robotnikinin, N-(4-chlorobenzyl)-2-((2R,6S,E)-5,12-dioxo-2-phenyl-1-oxa-4-azacyclododec-8-en-6-yl)acetamide]",ShhN binding in SPR,[2],ShhN-binding capacity at concentrations between 1.56 μM and 25 μM; also recorded: concentration-dependent binding to purified ShhN
same,dissociation time in SPR,[2]; compared with AML1 and AML2,longer dissociation time than AML1 and AML2
same,EC50,"[4]; Shh Light2, ShhL2 cell line, Bright Glo luciferase, approximations based on concentration curves",~4 µM
same,concentration giving inhibition comparable to 6.25 μM cyclopamine,[4]; Shh-LIGHT2 cells,above 30 μM
same,inhibition with co-administered purmorphamine,"[4]; Shh-LIGHT2 cells, ShhN-conditioned medium plus 3.6 μM purmorphamine",virtually all of the inhibitory effect was eliminated; also recorded: negligible inhibition
same,Gli1 ECmax,"[4]; ShhL2 cell line, concentration of maximal effect",62.5 µM
same,Shh pathway inhibition / Gli1 suppression,"[4]; ShhN-conditioned medium, 30 h incubation",concentration-dependent inhibition of ShhN-induced pathway activation; also recorded: strong concentration dependent Gli1 suppression
same,"% CI (% cyclopamine inhibition), footnote d","[4]; may be taken relative to mock treatment (comparable to 6 μM cyclopamine), cytotoxic compounds: at highest effective non-cytotoxic concentration",91%
same,cytotoxicity,"[5]; Cell Titer Glo, ShhL2 cells, concentration above which cytotoxic",none
same,cytotoxicity,[5]; cell titer viability assay,No significant cytotoxicity was observed
same,pathway inhibition in Ptc1-/- cell line,"[1]; 30 h, any concentration tested, normalized for cell titer",no pathway inhibition was observed; also recorded: pathway inhibition was not observed
same,effect on Gli1/Gli2 mRNA with co-administered Smo agonists purmorphamine and SAG,[6]; primary human keratinocytes,this effect is blocked
same,endogenous Gli1 mRNA level,"[6]; qPCR, normalized for cell titer",lowers levels
same,endogenous Gli2 mRNA level,[7],lowers levels; also recorded: lower levels of endogenous Gli2 mRNA
same,histology of treated synthetic skin,[8],histologically normal
same,Gli1 and Gli2 mRNA levels in synthetic skin,[8]; qPCR after incubation,reduced levels of Gli1 and Gli2 mRNA
same,hair follicles in skin cross sections,[9]; 12 days post depilation,lack of hair follicles
same,hair regrowth,"[9]; topical, daily, 8 and 12 days post depilation, C57BL/6J mice",blocked hair regrowth
